Results from article PMC12638379, “An innovative approach to development of new pyrazolylquinolin-2-one hybrids as dual EGFR and BRAF^V600E inhibitors” (Molecular Diversity, 2025).
Read-outs that look alike come from different tables or passages of the source.

System: NCI 60 cancer cell lines
Experiment: NCI anticancer screening over a panel of 60 cancer cells, single concentration 10 µM
Format: cell-based, human
Conditions: Homo sapiens, read-out: Growth inhibition (GI %)
Outline: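 Run under the NCI Compound Evaluation Branch protocol, each compound was tested once at 10 µM. The panel comprised 60 cancer cell lines of diverse tissue origin, including leukemia, lung, colon, CNS, renal, ovarian, breast and prostate.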

[1] = A549, Non-small cell lung cancer A549/ATCC, 10 μM
[2] = BT-549, Breast cancer BT-549, 10 μM
[3] = CAKI-1, Renal cancer CAKI-1, 10 μM
[4] = CCRF-CEM, Leukemia CCRF-CEM, 10 μM
[5] = COLO 205, Colon cancer COLO 205, 10 μM
[6] = DU-145, Prostate cancer DU-145, 10 μM
[7] = EKVX, Non-small cell lung cancer EKVX, 10 μM
[8] = HCC 2998, Colon cancer HCC-2998, 10 μM
[9] = HCT-15, Colon cancer HCT-15, 10 μM
[10] = HCT-116, Colon cancer HCT-116, 10 μM
[11] = HL-60, Leukemia HL-60(TB), 10 μM
[12] = HOP-62, Non-small cell lung cancer HOP-62, 10 μM
[13] = HOP-92, Non-small cell lung cancer HOP-92, 10 μM
[14] = HT-29, Colon cancer HT29, 10 μM
[15] = Hs-578T, Breast cancer HS 578T, 10 μM
[16] = IGROV-1, Ovarian cancer IGROV1, 10 μM
[17] = LOX IMVI, Melanoma LOX IMVI, 10 μM
[18] = MCF7, Breast cancer MCF7, 10 μM
[19] = MDA-MB-435, Melanoma MDA-MB-435, 10 μM
[20] = MDA-MB-468, Breast cancer MDA-MB-468, 10 μM
[21] = Malme-3M, Melanoma MALME-3M, 10 μM
[22] = NCI-H23, Non-small cell lung cancer NCI-H23, 10 μM
[23] = NCI-H226, Non-small cell lung cancer NCI-H226, 10 μM
[24] = NCI-H322M, Non-small cell lung cancer NCI-H322M, 10 μM
[25] = NCI-H460, Non-small cell lung cancer NCI-H460, 10 μM
[26] = NCI-H522, Non-small cell lung cancer NCI-H522, 10 μM
[27] = NCI/ADR-RES, Ovarian cancer NCI/ADR-RES, 10 μM
[28] = OVCAR-3, Ovarian cancer OVCAR-3, 10 μM
[29] = OVCAR-4, Ovarian cancer OVCAR-4, 10 μM
[30] = OVCAR-5, Ovarian cancer OVCAR-5, 10 μM
[31] = OVCAR-8, Ovarian cancer OVCAR-8, 10 μM
[32] = RPMI-8226, Leukemia RPMI-8226, 10 μM
[33] = RXF 393, Renal cancer RXF 393, 10 μM
[34] = SF-268, CNS Cancer SF-268, 10 μM
[35] = SF-295, CNS Cancer SF-295, 10 μM
[36] = SF-539, CNS Cancer SF-539, 10 μM
[37] = SK-MEL-2, Melanoma SK-MEL-2, 10 μM
[38] = SK-MEL-5, Melanoma SK-MEL-5, 10 μM
[39] = SK-MEL-28, Melanoma SK-MEL-28, 10 μM
[40] = SK-OV-3, Ovarian cancer SK-OV-3, 10 μM
[41] = SN12C, Renal cancer SN12C, 10 μM
[42] = SNB-19, CNS Cancer SNB-19, 10 μM
[43] = SNB-75, CNS Cancer SNB-75, 10 μM
[44] = SW-620, Colon cancer SW-620, 10 μM
[45] = T47D, Breast cancer T-47D, 10 μM
[46] = TK-10, Renal cancer TK-10, 10 μM
[47] = UACC-62, Melanoma UACC-62, 10 μM
[48] = UACC-257, Melanoma UACC-257, 10 μM
[49] = UO-31, Renal cancer UO-31, 10 μM

Work on COc1ccc2[nH]c(=O)cc(-n3ncc(C(C)=O)c3C)c2c1 [Compound 2c, 4-(4-Acetyl-5-methyl-1H-pyrazol-1-yl)-6-methoxyquinolin-2(1H)-one] yielded an inhibition at 10 µM (786-0, Renal cancer 786-0, 10 μM) of less than 5%, an inhibition at 10 µM (A498, Renal cancer A498, 10 μM) of less than 5% and an inhibition at 10 µM [1] of less than 5%. It also gave an inhibition at 10 µM (ACHN, Renal cancer ACHN, 10 μM) of less than 5%, an inhibition at 10 µM [2] of less than 5% and an inhibition at 10 µM [3] of 15.6%. It also gave an inhibition at 10 µM [4] of 5.28%, an inhibition at 10 µM [5] of less than 5% and an inhibition at 10 µM [6] of less than 5%. For the same compound, the inhibition at 10 µM [7] was 6.27%, the inhibition at 10 µM [8] was less than 5% and the inhibition at 10 µM [9] was less than 5%. It also gave an inhibition at 10 µM [10] of 7.78%, an inhibition at 10 µM [11] of 12.5% and an inhibition at 10 µM [12] of 18.8%. It also gave an inhibition at 10 µM [13] of 31.6%, an inhibition at 10 µM [14] of less than 5% and an inhibition at 10 µM [15] of less than 5%. For the same compound, the inhibition at 10 µM [16] was less than 5%, the inhibition at 10 µM (K562, Leukemia K-562, 10 μM) was less than 5% and the inhibition at 10 µM (KM12, Colon cancer KM12, 10 μM) was less than 5%. It also gave an inhibition at 10 µM [17] of 11.3%, an inhibition at 10 µM (Leukemia SR, 10 μM) of 8.98% and an inhibition at 10 µM [18] of less than 5%. For the same compound, the inhibition at 10 µM (MDA-MB-231, Breast Cancer MDA-MB 231/ATCC, 10 μM) was 7%, the inhibition at 10 µM [19] was less than 5% and the inhibition at 10 µM [20] was less than 5%. For the same compound, the inhibition at 10 µM (MOLT-4, Leukemia MOLT-4, 10 μM) was less than 5%, the inhibition at 10 µM [21] was less than 5% and the inhibition at 10 µM (Melanoma M14, 10 μM) was less than 5%. For the same compound, the inhibition at 10 µM [22] was less than 5%, the inhibition at 10 µM [23] was 7.15% and the inhibition at 10 µM [24] was 7.11%. The inhibition at 10 µM [25] was less than 5%, the inhibition at 10 µM [26] was 8.32% and the inhibition at 10 µM [27] was less than 5%. For the same compound, the inhibition at 10 µM [28] was less than 5%, the inhibition at 10 µM [29] was less than 5% and the inhibition at 10 µM [30] was less than 5%. For the same compound, the inhibition at 10 µM [31] was less than 5%, the inhibition at 10 µM (Prostate cancer PC-3, 10 μM) was 13.4% and the inhibition at 10 µM [32] was 11.7%. For the same compound, the inhibition at 10 µM [33] was less than 5%, the inhibition at 10 µM [34] was less than 5% and the inhibition at 10 µM [35] was less than 5%. It also gave an inhibition at 10 µM [36] of less than 5%, an inhibition at 10 µM [37] of less than 5% and an inhibition at 10 µM [38] of less than 5%. For the same compound, the inhibition at 10 µM [39] was less than 5%, the inhibition at 10 µM [40] was 7.83% and the inhibition at 10 µM [41] was less than 5%. The inhibition at 10 µM [42] was less than 5%, the inhibition at 10 µM [43] was 11.8% and the inhibition at 10 µM [44] was less than 5%. For the same compound, the inhibition at 10 µM [45] was 9.18%, the inhibition at 10 µM [46] was less than 5% and the inhibition at 10 µM (U-251, CNS Cancer U251, 10 μM) was 5.38%. The inhibition at 10 µM [47] was less than 5%, the inhibition at 10 µM [48] was less than 5% and the inhibition at 10 µM [49] was 34.4%.
CC(=O)c1cnn(-c2cc(=O)[nH]c3ccc(Cl)cc23)c1C [Compound 2d, 4-(4Aacetyl-5-methyl-1H-pyrazol-1-yl)-6-chloroquinolin-2(1H)-one] gave an inhibition at 10 µM (A498, Renal cancer A498, 10 μM) of less than 5%, an inhibition at 10 µM [1] of 5.11% and an inhibition at 10 µM (ACHN, Renal cancer ACHN, 10 μM) of 7.6%. For the same compound, the inhibition at 10 µM [2] was less than 5%, the inhibition at 10 µM [3] was 15.1% and the inhibition at 10 µM [4] was 8.99%. It also gave an inhibition at 10 µM [5] of less than 5%, an inhibition at 10 µM [6] of less than 5% and an inhibition at 10 µM [7] of 13.9%. The inhibition at 10 µM [8] was less than 5%, the inhibition at 10 µM [9] was less than 5% and the inhibition at 10 µM [10] was less than 5%. It also gave an inhibition at 10 µM [11] of 6.19%, an inhibition at 10 µM [12] of 9.35% and an inhibition at 10 µM [13] of 13.4%. The inhibition at 10 µM [14] was less than 5%, the inhibition at 10 µM [15] was less than 5% and the inhibition at 10 µM [16] was 7.41%. The inhibition at 10 µM (K562, Leukemia K-562, 10 μM) was 5.5%, the inhibition at 10 µM (KM12, Colon cancer KM12, 10 μM) was less than 5% and the inhibition at 10 µM [17] was 11.2%. For the same compound, the inhibition at 10 µM (Leukemia SR, 10 μM) was less than 5%, the inhibition at 10 µM [18] was 6.43% and the inhibition at 10 µM [19] was less than 5%. For the same compound, the inhibition at 10 µM [20] was less than 5%, the inhibition at 10 µM (MOLT-4, Leukemia MOLT-4, 10 μM) was 8.77% and the inhibition at 10 µM [21] was 13.3%. It also gave an inhibition at 10 µM (Melanoma M14, 10 μM) of less than 5%, an inhibition at 10 µM [22] of 5.37% and an inhibition at 10 µM [23] of 16.6%. The inhibition at 10 µM [24] was 12.2%, the inhibition at 10 µM [25] was less than 5% and the inhibition at 10 µM [26] was 5.29%. The inhibition at 10 µM [27] was 5.32%, the inhibition at 10 µM [28] was less than 5% and the inhibition at 10 µM [29] was less than 5%. It also gave an inhibition at 10 µM [30] of less than 5%, an inhibition at 10 µM [31] of less than 5% and an inhibition at 10 µM (Prostate cancer PC-3, 10 μM) of 11%. It also gave an inhibition at 10 µM [32] of 9.16%, an inhibition at 10 µM [33] of less than 5% and an inhibition at 10 µM [34] of less than 5%. For the same compound, the inhibition at 10 µM [35] was 5.21%, the inhibition at 10 µM [36] was 14.4% and the inhibition at 10 µM [37] was less than 5%. It also gave an inhibition at 10 µM [38] of 5.89%, an inhibition at 10 µM [39] of less than 5% and an inhibition at 10 µM [40] of 6.14%. The inhibition at 10 µM [41] was 15.2%, the inhibition at 10 µM [42] was 7.35% and the inhibition at 10 µM [43] was less than 5%. The inhibition at 10 µM [44] was less than 5%, the inhibition at 10 µM [45] was less than 5% and the inhibition at 10 µM [46] was less than 5%. The inhibition at 10 µM (U-251, CNS Cancer U251, 10 μM) was less than 5%, the inhibition at 10 µM [47] was 15.7% and the inhibition at 10 µM [48] was less than 5%. It also gave an inhibition at 10 µM [49] of 35%.
